This passage reports T/C results from PubChem BioAssay AID194 (DTP/NCI, 2004).

Where “and” joins values, the source holds several entries; their conditions need not be identical. Equal entries are not always repeated. Inconclusive results are not listed.

For the assay, the system named is BDF1 mice, B16 melanoma s.c., survival/tumor T/C. The experiment in a line: NCI In Vivo Anticancer Drug Screen. Data for tumor model B16 Melanoma (subcutaneous) in B6D2F1 (BDF1) mice. The procedure: The antitumor activity of compounds was measured in mice bearing transplantable tumors. Survival or tumor size were measured and the results are expressed as the measurement made in the treated group (T) divided by the measurement made in the vehicle treated control group (C). The tumor model used in this assay is B16 Melanoma (subcutaneous) in B6D2F1 (BDF1) mice

[1] abbreviates: endpoint: median survival time, dose: 4.0 mg/kg/injection, schedule: Q02DX009 (ip), vehicle: Klucel (hydroxypropylcellulose) (HPC), higher = longer survival.
The mark [2] stands for this setting: endpoint: median survival time, dose: 8.0 mg/kg/injection, schedule: Q02DX009 (ip), vehicle: Klucel (hydroxypropylcellulose) (HPC), higher = longer survival.

For the molecule `O=c1[nH]c(=O)n([C@H]2CCCO2)cc1F`, the T/C runs as follows: (endpoint: median survival time, dose: 23.0 mg/kg/injection, schedule: Q01DX009 (ip), vehicle: saline, higher = longer survival) 101 % of control; (endpoint: median survival time, dose: 39.0 mg/kg/injection, schedule: Q01DX009 (ip), vehicle: saline, higher = longer survival) 100 % of control; (endpoint: median survival time, dose: 65.0 mg/kg/injection, schedule: Q01DX009 (ip), vehicle: saline, higher = longer survival) 100 % of control; (endpoint: median survival time, dose: 108.0 mg/kg/injection, schedule: Q04DX003 (ip), vehicle: saline, higher = longer survival) 118 % of control; (endpoint: median survival time, dose: 180.0 mg/kg/injection, schedule: Q04DX003 (ip), vehicle: saline, higher = longer survival) 107 % of control.

Turning to `Cc1nc(N)nc(N)c1-c1ccc(Cl)c(Cl)c1`, the T/C reads like this: (endpoint: median survival time, dose: 1.0 mg/kg/injection, schedule: Q02DX009 (ip), vehicle: Klucel (hydroxypropylcellulose) (HPC), higher = longer survival) 103 % of control; (endpoint: median survival time, dose: 2.0 mg/kg/injection, schedule: Q02DX009 (ip), vehicle: Klucel (hydroxypropylcellulose) (HPC), higher = longer survival) 99 % of control; under setting [1], 88 % of control; under setting [2], 112 % of control.

As to `OCC1OC(n2cnc3c2NC=NC[C@H]3O)CC1O` (stereo not given in full), the T/C reads like this: (endpoint: median survival time, dose: 0.05 mg/kg/injection, schedule: Q03HX024 (ip), vehicle: saline, higher = longer survival) 90 % of control; (endpoint: median survival time, dose: 0.1 mg/kg/injection, schedule: Q03HX024 (ip), vehicle: saline, higher = longer survival) 105 % of control.

On to `C[C@@H]1CC[C@@]2(NC1)O[C@H]1C[C@H]3[C@@H]4CC=C5C[C@@H](O)CC[C@]5(C)[C@H]4CC[C@]3(C)[C@H]1[C@@H]2C`, for which the T/C by setting is: (endpoint: median survival time, dose: 0.78 mg/kg/injection, schedule: Q01DX009 (ip), vehicle: Klucel (hydroxypropylcellulose) (HPC), higher = longer survival) 121 % of control; (endpoint: median survival time, dose: 1.56 mg/kg/injection, schedule: Q01DX009 (ip), vehicle: Klucel (hydroxypropylcellulose) (HPC), higher = longer survival) 121 % of control; (endpoint: median survival time, dose: 6.25 mg/kg/injection, schedule: Q01DX009 (ip), vehicle: Klucel (hydroxypropylcellulose) (HPC), higher = longer survival) 120 % of control.

On to `O=NN(CCF)C(=O)N[C@H]1CCCC[C@H]1O`, for which the T/C is 68 % of control (endpoint: median survival time, dose: 5.18 mg/kg/injection, schedule: Q01DX007 (ip), vehicle: water, higher = longer survival); 105 % of control (endpoint: median survival time, dose: 8.64 mg/kg/injection, schedule: Q01DX007 (ip), vehicle: water, higher = longer survival); 121 % of control (endpoint: median survival time, dose: 14.4 mg/kg/injection, schedule: Q01DX007 (ip), vehicle: water, higher = longer survival).

On to `CCN1/C(=C/C=C/C=C/c2sc3ccccc3[n+]2CC)Sc2ccccc21`, for which the T/C is, setting by setting: (endpoint: median survival time, dose: 63.0 micrograms/kg/injection, schedule: Q01DX009 (ip), vehicle: saline, higher = longer survival) 117 % of control; (endpoint: median survival time, dose: 125.0 micrograms/kg/injection, schedule: Q01DX009 (ip), vehicle: saline, higher = longer survival) 120 % of control.

For `C[n+]1c2ccccc2c(Nc2ccc(NS(=O)(=O)CCCCN=C(N)N)cc2)c2ccc(N)cc21`, the T/C was 96 % of control (endpoint: median survival time, dose: 1.5 mg/kg/injection, schedule: Q01DX009 (sc), vehicle: saline, higher = longer survival); 112 % of control (endpoint: median survival time, dose: 3.0 mg/kg/injection, schedule: Q01DX009 (sc), vehicle: saline, higher = longer survival); 108 % of control (endpoint: median survival time, dose: 6.0 mg/kg/injection, schedule: Q01DX009 (sc), vehicle: saline, higher = longer survival).

For `CC(C)(C)c1ccc(CN2CCN(C(c3ccccc3)c3ccc(Cl)cc3)CC2)cc1` (stereo not given), the T/C is, setting by setting: (endpoint: median survival time, dose: 22.5 micrograms/kg/injection, schedule: Q01DX009 (ip), vehicle: Klucel (hydroxypropylcellulose) (HPC), higher = longer survival) 91 % of control; (endpoint: median survival time, dose: 45.0 micrograms/kg/injection, schedule: Q01DX009 (ip), vehicle: Klucel (hydroxypropylcellulose) (HPC), higher = longer survival) 88 % of control.

On to `CN(C)c1nc(N(C)C)nc(N(C)C)n1`, for which the T/C runs as follows: (endpoint: median survival time, dose: 20.0 mg/kg/injection, schedule: Q01DX009 (ip), vehicle: Klucel (hydroxypropylcellulose) (HPC), higher = longer survival) 115 % of control; (endpoint: median survival time, dose: 40.0 mg/kg/injection, schedule: Q01DX009 (ip), vehicle: Klucel (hydroxypropylcellulose) (HPC), higher = longer survival) 118 % of control; (endpoint: median survival time, dose: 80.0 mg/kg/injection, schedule: Q01DX009 (ip), vehicle: Klucel (hydroxypropylcellulose) (HPC), higher = longer survival) 111 % of control; (endpoint: median survival time, dose: 160.0 mg/kg/injection, schedule: Q01DX009 (ip), vehicle: Klucel (hydroxypropylcellulose) (HPC), higher = longer survival) 115 % of control.

On to `O=C1C(=O)c2ccccc2C(O)=C1CC=C(Cl)Cl`, for which the T/C (endpoint: median survival time, dose: 8.0 mg/kg/injection, schedule: Q01DX009 (ip), vehicle: saline + alcohol, higher = longer survival) is 87 % of control; the T/C (endpoint: median survival time, dose: 16.0 mg/kg/injection, schedule: Q01DX009 (ip), vehicle: saline + alcohol, higher = longer survival) was 109 % of control; the T/C (endpoint: median survival time, dose: 32.0 mg/kg/injection, schedule: Q01DX009 (ip), vehicle: saline + alcohol, higher = longer survival) is 77 % of control; the T/C (endpoint: median tumor weight (est.), dose: 12.5 mg/kg/injection, schedule: Q01DX009 (ip), vehicle: Klucel (hydroxypropylcellulose) (HPC), higher = larger tumour) is 94 % of control and 104 % of control and 108 % of control; the T/C (endpoint: median tumor weight (est.), dose: 50.0 mg/kg/injection, schedule: Q01DX009 (ip), vehicle: Klucel (hydroxypropylcellulose) (HPC), higher = larger tumour) was 53 % of control and 55 % of control and 64 % of control.

On to `CC1=CCC(C(C)C)C=C1` (stereo not given), for which the T/C by setting is: (endpoint: median survival time, dose: 25.0 mg/kg/injection, schedule: Q01DX009 (ip), vehicle: Klucel (hydroxypropylcellulose) (HPC), higher = longer survival) 121 % of control; (endpoint: median survival time, dose: 50.0 mg/kg/injection, schedule: Q01DX009 (ip), vehicle: Klucel (hydroxypropylcellulose) (HPC), higher = longer survival) 117 % of control; (endpoint: median survival time, dose: 100.0 mg/kg/injection, schedule: Q01DX009 (ip), vehicle: Klucel (hydroxypropylcellulose) (HPC), higher = longer survival) 89 % of control and 100 % of control; (endpoint: median survival time, dose: 200.0 mg/kg/injection, schedule: Q01DX009 (ip), vehicle: Klucel (hydroxypropylcellulose) (HPC), higher = longer survival) 98 % of control and 108 % of control.

Regarding `CCCCC(=O)OCC(=O)[C@]1(O)Cc2c(O)c3c(c(O)c2[C@@H](OC2CC(NC(=O)C(F)(F)F)C(O)C(C)O2)C1)C(=O)c1c(OC)cccc1C3=O` (stereo not given in full), the T/C (endpoint: median survival time, dose: 9.0 mg/kg/injection, schedule: Q01DX008 (ip), vehicle: distilled water + Tween-80, higher = longer survival) was 104 % of control; the T/C (endpoint: median survival time, dose: 13.0 mg/kg/injection, schedule: Q01DX008 (ip), vehicle: distilled water + Tween-80, higher = longer survival) was 118 % of control; the T/C (endpoint: median survival time, dose: 20.0 mg/kg/injection, schedule: Q01DX008 (ip), vehicle: distilled water + Tween-80, higher = longer survival) is 110 % of control; the T/C (endpoint: median survival time, dose: 30.0 mg/kg/injection, schedule: Q01DX008 (ip), vehicle: distilled water + Tween-80, higher = longer survival) is 124 % of control.

Turning to `O=C1c2ccccc2C(=O)c2c(NCCNCCO)ccc(NCCNCCO)c21`, the T/C is, setting by setting: (endpoint: median survival time, dose: 0.5 mg/kg/injection, schedule: Q01DX009 (ip), vehicle: saline with Tween-80, higher = longer survival) 106 % of control and 119 % of control; (endpoint: median survival time, dose: 0.5 mg/kg/injection, schedule: Q01DX009 (ip), vehicle: saline, higher = longer survival) 111 % of control; (endpoint: median survival time, dose: 1.0 mg/kg/injection, schedule: Q01DX009 (ip), vehicle: saline with Tween-80, higher = longer survival) 93 % of control and 115 % of control; (endpoint: median survival time, dose: 1.0 mg/kg/injection, schedule: Q01DX009 (ip), vehicle: saline, higher = longer survival) 104 % of control and 110 % of control; (endpoint: median survival time, dose: 1.0 mg/kg/injection, schedule: Q02DX009 (ip), vehicle: saline, higher = longer survival) 100 % of control; (endpoint: median survival time, dose: 2.0 mg/kg/injection, schedule: Q01DX009 (ip), vehicle: saline with Tween-80, higher = longer survival) 101 % of control and 108 % of control. Further, the T/C is 100 % of control and 104 % of control and 107 % of control (endpoint: median survival time, dose: 2.0 mg/kg/injection, schedule: Q01DX009 (ip), vehicle: saline, higher = longer survival); 92 % of control (endpoint: median survival time, dose: 4.0 mg/kg/injection, schedule: Q01DX009 (ip), vehicle: saline, higher = longer survival); 94 % of control under setting [1]; 154 % of control (endpoint: median survival time, dose: 4.0 mg/kg/injection, schedule: Q02DX009 (ip), vehicle: saline, higher = longer survival); 104 % of control (endpoint: median survival time, dose: 8.0 mg/kg/injection, schedule: Q01DX009 (ip), vehicle: Klucel (hydroxypropylcellulose) (HPC), higher = longer survival); 107 % of control (endpoint: median survival time, dose: 8.0 mg/kg/injection, schedule: Q01DX009 (ip), vehicle: saline, higher = longer survival). For the same molecule, the T/C under setting [2] is 117 % of control; the T/C (endpoint: median survival time, dose: 8.0 mg/kg/injection, schedule: Q02DX009 (ip), vehicle: saline, higher = longer survival) is 110 % of control; the T/C (endpoint: median survival time, dose: 8.0 mg/kg/injection, schedule: Q02DX009 (ip), vehicle: water, higher = longer survival) was 107 % of control; the T/C (endpoint: median survival time, dose: 13.0 mg/kg/injection, schedule: Q01DX009 (ip), vehicle: Klucel (hydroxypropylcellulose) (HPC), higher = longer survival) is 104 % of control; the T/C (endpoint: median survival time, dose: 16.0 mg/kg/injection, schedule: Q01DX009 (ip), vehicle: Klucel (hydroxypropylcellulose) (HPC), higher = longer survival) is 152 % of control; the T/C (endpoint: median survival time, dose: 16.0 mg/kg/injection, schedule: Q01DX009 (ip), vehicle: saline, higher = longer survival) was 117 % of control. The T/C was 113 % of control (endpoint: median survival time, dose: 16.0 mg/kg/injection, schedule: Q02DX009 (ip), vehicle: Klucel (hydroxypropylcellulose) (HPC), higher = longer survival); 95 % of control and 106 % of control (endpoint: median survival time, dose: 16.0 mg/kg/injection, schedule: Q02DX009 (ip), vehicle: water, higher = longer survival); 97 % of control (endpoint: median survival time, dose: 43.0 mg/kg/injection, schedule: Q04DX003 (ip), vehicle: Klucel (hydroxypropylcellulose) (HPC), higher = longer survival); 91 % of control (endpoint: median survival time, dose: 74.0 mg/kg/injection, schedule: Q01DX001 (ip), vehicle: Klucel (hydroxypropylcellulose) (HPC), higher = longer survival); 64 % of control (endpoint: median tumor weight (est.), dose: 13.0 mg/kg/injection, schedule: Q01DX009 (ip), vehicle: Klucel (hydroxypropylcellulose) (HPC), higher = larger tumour); 52 % of control (endpoint: median tumor weight (est.), dose: 43.0 mg/kg/injection, schedule: Q04DX003 (ip), vehicle: Klucel (hydroxypropylcellulose) (HPC), higher = larger tumour).
